Structures are written as SMILES.

T1 sequence (P48729 whole entry): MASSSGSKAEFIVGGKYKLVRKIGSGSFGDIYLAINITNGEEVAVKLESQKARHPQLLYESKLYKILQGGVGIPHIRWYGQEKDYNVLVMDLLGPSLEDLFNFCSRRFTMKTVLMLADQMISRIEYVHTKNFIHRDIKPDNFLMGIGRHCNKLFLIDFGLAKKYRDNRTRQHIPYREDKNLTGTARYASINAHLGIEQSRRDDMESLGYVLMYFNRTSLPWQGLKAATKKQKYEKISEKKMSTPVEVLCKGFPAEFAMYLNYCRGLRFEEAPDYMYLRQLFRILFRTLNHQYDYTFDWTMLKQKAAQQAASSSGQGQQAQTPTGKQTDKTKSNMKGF
T1 sequence (Q96SW2 whole entry, further chain): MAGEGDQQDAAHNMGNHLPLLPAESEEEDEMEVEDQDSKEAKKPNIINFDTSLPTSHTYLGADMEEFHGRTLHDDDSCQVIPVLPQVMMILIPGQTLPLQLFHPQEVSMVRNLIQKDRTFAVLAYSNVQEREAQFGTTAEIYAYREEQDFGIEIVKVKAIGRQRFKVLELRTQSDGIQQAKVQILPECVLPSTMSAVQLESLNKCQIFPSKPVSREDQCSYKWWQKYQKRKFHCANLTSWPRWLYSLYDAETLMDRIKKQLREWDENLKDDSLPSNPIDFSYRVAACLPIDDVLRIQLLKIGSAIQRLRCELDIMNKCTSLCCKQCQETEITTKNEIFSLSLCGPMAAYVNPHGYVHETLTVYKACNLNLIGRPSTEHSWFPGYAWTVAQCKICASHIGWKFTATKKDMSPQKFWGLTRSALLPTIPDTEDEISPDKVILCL
T1 sequence (Q16531 2-1140 partner limits assumed): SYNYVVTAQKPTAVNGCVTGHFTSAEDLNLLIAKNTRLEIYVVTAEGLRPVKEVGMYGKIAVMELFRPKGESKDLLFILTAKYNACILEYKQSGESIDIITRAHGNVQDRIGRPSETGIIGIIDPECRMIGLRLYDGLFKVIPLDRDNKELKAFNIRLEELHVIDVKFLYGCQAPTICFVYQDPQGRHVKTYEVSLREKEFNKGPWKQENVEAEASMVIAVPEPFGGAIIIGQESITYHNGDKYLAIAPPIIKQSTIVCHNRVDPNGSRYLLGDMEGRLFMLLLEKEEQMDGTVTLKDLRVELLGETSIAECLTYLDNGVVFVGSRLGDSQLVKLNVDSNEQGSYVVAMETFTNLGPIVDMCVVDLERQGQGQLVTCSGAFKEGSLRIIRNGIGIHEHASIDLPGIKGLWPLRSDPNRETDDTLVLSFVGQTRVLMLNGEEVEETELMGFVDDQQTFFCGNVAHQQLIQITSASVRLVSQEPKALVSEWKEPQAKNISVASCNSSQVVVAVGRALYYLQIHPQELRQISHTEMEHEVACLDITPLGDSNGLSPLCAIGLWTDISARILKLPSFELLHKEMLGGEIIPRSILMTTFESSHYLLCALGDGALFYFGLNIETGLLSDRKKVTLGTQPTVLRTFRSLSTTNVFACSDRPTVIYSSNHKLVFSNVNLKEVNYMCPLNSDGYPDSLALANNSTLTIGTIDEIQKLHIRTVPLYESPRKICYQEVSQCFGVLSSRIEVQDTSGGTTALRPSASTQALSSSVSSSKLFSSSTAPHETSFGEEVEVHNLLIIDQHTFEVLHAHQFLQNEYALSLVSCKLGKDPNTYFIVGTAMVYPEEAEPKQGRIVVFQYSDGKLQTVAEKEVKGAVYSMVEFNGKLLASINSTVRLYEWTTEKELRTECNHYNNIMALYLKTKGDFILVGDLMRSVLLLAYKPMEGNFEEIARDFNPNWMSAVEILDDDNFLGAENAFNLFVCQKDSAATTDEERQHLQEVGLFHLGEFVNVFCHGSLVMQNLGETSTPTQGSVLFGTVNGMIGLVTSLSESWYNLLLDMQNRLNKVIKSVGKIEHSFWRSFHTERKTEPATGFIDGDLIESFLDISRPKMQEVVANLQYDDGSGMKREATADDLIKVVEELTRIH

This test addresses T1, CK1α (Homo sapiens, UniProt P48729).
T1 construct: HEK293 clonal lines with CRISPR KI HiBiT tag on CSNK1A1
Kind of test: CK1α NanoBit Assay (HiBiT-tagged CSNK1A1, HEK293 clonal lines). The conditions noted are these: HEK293 HiBiT-CSNK1A1/LgBiT cells, 24 h incubation. The format is cell-based. Here is the method: HEK293 clonal lines with CRISPR KI HiBiT tag on CSNK1A1 and stably expressing LgBiT protein were obtained from Promega (Madison, WI). […] Cells were incubated at 37° C., 5% CO2 for 24 hours and then signal was read on a Pherastar FSX using “LUM plus” optic module.
Data analysis was performed in Scinamic (Scinamic, Cambridge, MA). Luminescence response (R) was calculated by the formula: response=100*(S−N)/(P−N) where S is the signal of the well, N and P the mean negative and positive control values respectively of the same plate.
DC50 data are reported in Table 2 for compounds in Table 1. In Table 2 below, According to the code, A represents a DC50 value of ≤0.1 μM, B represents a DC50 value>0.1 μM and ≤1 μM, C represents an DC50 value>1 μM.
In general terms: HiBiT is a short tag that completes a luciferase, so light tracks the accessible tagged protein.
With `O=C1CCC(N2Cc3cc(NC(=O)N4CCCc5c4cccc5C(F)(F)F)ccc3C2=O)C(=O)N1` (stereo not drawn) [Compound 160], the DC50 fell in the range of 0.1 to 1 µM. As for `O=C1CCC(N2Cc3cc(NC(=O)N4CCc5ccccc5C4)ccc3C2=O)C(=O)N1` (stereo not drawn) [Compound 104, N-(2-(2,6-dioxopiperidin-3-yl)-1-oxoisoindolin-5-yl)-3,4-dihydroisoquinoline-2(1H)-carboxamide], the DC50 is < 0.1 µM. On to `O=C1CCC(N2Cc3cc(NC(=O)N4CCN(C56CC(C5)C6)CC4)ccc3C2=O)C(=O)N1` (stereo not drawn) [Compound 234], for which the DC50 was > 1 µM.

`Cc1cccc2c1CCCN2C(=O)Nc1ccc2c(c1)CN(C1CCC(=O)NC1=O)C2=O` (stereo not drawn) [Compound 122]: the DC50 is 0.1 to 1 µM. Take `CC(C)[C@]12C[C@H]1CN(C(=O)Nc1ccc3c(c1)CN(C1CCC(=O)NC1=O)C3=O)C2` (stereo partly drawn) [Compound 235]: the DC50 is < 0.1 µM. The result for `O=C1CCC(N2Cc3cc(NC(=O)N4CCCC4c4ccccc4)ccc3C2=O)C(=O)N1` (stereo not drawn) [Compound 264] reads < 0.1 µM; that for `O=C1CCC(N2Cc3cc(NC(=O)N4CCCCC4C(F)(F)F)ccc3C2=O)C(=O)N1` (stereo not drawn) [Compound 219], < 0.1 µM; that for `CC1CCc2ccccc2N1C(=O)Nc1ccc2c(c1)CN(C1CCC(=O)NC1=O)C2=O` (stereo not drawn) [Compound 120], 0.1 to 1 µM. Regarding `O=C1CCC(N2Cc3cc(NC(=O)N4CCN(c5ccncn5)CC4)ccc3C2=O)C(=O)N1` (stereo not drawn) [Compound 266], the DC50 was > 1 µM. Take `O=C1CCC(N2Cc3cc(NC(=O)N4CCCc5ccccc54)ccc3C2=O)C(=O)N1` (stereo not drawn) [Compound 107, N-(2-(2,6-dioxopiperidin-3-yl)-1-oxoisoindolin-5-yl)-3,4-dihydroquinoline-1(2H)-carboxamide]: the DC50 was in the range of 0.1 to 1 µM. Turning to `C[C@@H]1C[C@H](C)c2ccccc2N1C(=O)Nc1ccc2c(c1)CN(C1CCC(=O)NC1=O)C2=O` (stereo partly drawn) [Compound 128], the DC50 lay within 0.1 to 1 µM. The result for `CCC1(c2ccccc2)CN(C(=O)Nc2ccc3c(c2)CN(C2CCC(=O)NC2=O)C3=O)C1` (stereo not drawn) [Compound 252] reads 0.1 to 1 µM; that for `O=C1CCC(N2Cc3cc(NC(=O)N4CCc5ccc(-c6ccccc6)cc5C4)ccc3C2=O)C(=O)N1` (stereo not drawn) [Compound 183], < 0.1 µM; that for `O=C1CCC(N2Cc3cc(NC(=O)N4CCC(C5CC5)C4)ccc3C2=O)C(=O)N1` (stereo not drawn) [Compound 277], < 0.1 µM.

For the compound `O=C1CC[C@@H](N2Cc3cc(NC(=O)N4c5ccccc5C[C@@H]4C(F)(F)F)ccc3C2=O)C(=O)N1` (single isomer, unassigned) [Compound 360], the DC50 was < 0.1 µM. As to `O=C1CCC(N2Cc3cc(NC(=O)N4CCCc5cccc(OC(F)F)c54)ccc3C2=O)C(=O)N1` (stereo not drawn) [Compound 159], the DC50 fell in the range of 0.1 to 1 µM.

Take `O=C1CCC(N2Cc3cc(NC(=O)N4Cc5cccnc5C4)ccc3C2=O)C(=O)N1` (stereo not drawn) [Compound 121]: the DC50 was 0.1 to 1 µM. For the compound `C[C@@H]1c2ccccc2CN1C(=O)Nc1ccc2c(c1)CN(C1CCC(=O)NC1=O)C2=O` (stereo partly drawn) [Compound 170], the DC50 is < 0.1 µM.

For `CC1(C)CN(C(=O)Nc2ccc3c(c2)CN(C2CCC(=O)NC2=O)C3=O)Cc2ccccc21` (stereo not drawn) [Compound 200], the DC50 was < 0.1 µM. For `O=C1CCC(N2Cc3cc(NC(=O)N4Cc5ccccc5C(C(F)(F)F)C4)ccc3C2=O)C(=O)N1` (stereo not drawn) [Compound 196], the DC50 is < 0.1 µM. Regarding `O=C1CCC(N2Cc3cc(NC(=O)N4Cc5ccc(C(F)F)cc5C4)ccc3C2=O)C(=O)N1` (stereo not drawn) [Compound 168], the DC50 is < 0.1 µM. Turning to `O=C1CCC(N2Cc3cc(NC(=O)N4CCc5ccncc5C4)ccc3C2=O)C(=O)N1` (stereo not drawn) [Compound 151], the DC50 was > 1 µM. As for `CC(C)C1c2ccccc2CCN1C(=O)Nc1ccc2c(c1)CN(C1CCC(=O)NC1=O)C2=O` (stereo not drawn) [Compound 181], the DC50 was < 0.1 µM. `O=C1CCC(N2Cc3cc(NC(=O)N4CCc5ccccc5C4C(F)(F)F)ccc3C2=O)C(=O)N1` (stereo not drawn) [Compound 130]: the DC50 was < 0.1 µM. With `O=C1CCC(N2Cc3cc(NC(=O)N4Cc5ccccc5CC4c4ccccc4)ccc3C2=O)C(=O)N1` (stereo not drawn) [Compound 215], the DC50 was < 0.1 µM. The compound `N#Cc1ccc2c(c1)CCCN2C(=O)Nc1ccc2c(c1)CN(C1CCC(=O)NC1=O)C2=O` (stereo not drawn) [Compound 150] registered a DC50 of 0.1 to 1 µM.

In the case of `Cc1ccc2c(c1)CCCN2C(=O)Nc1ccc2c(c1)CN(C1CCC(=O)NC1=O)C2=O` (stereo not drawn) [Compound 140], the DC50 is < 0.1 µM.

`COc1ccc2c(c1)CN(C(=O)Nc1ccc3c(c1)CN(C1CCC(=O)NC1=O)C3=O)C2` (stereo not drawn) [Compound 199]: the DC50 is < 0.1 µM.

For the compound `N#Cc1cccc2c1CN(C(=O)Nc1ccc3c(c1)CN(C1CCC(=O)NC1=O)C3=O)C2` (stereo not drawn) [Compound 213], the DC50 was in the range of 0.1 to 1 µM. `N#Cc1ccc2c(c1)CN(C(=O)Nc1ccc3c(c1)CN(C1CCC(=O)NC1=O)C3=O)C2` (stereo not drawn) [Compound 133]: the DC50 was < 0.1 µM. On to `CC1Cc2ccccc2N(C(=O)Nc2ccc3c(c2)CN(C2CCC(=O)NC2=O)C3=O)C1` (stereo not drawn) [Compound 153], for which the DC50 is < 0.1 µM. In the case of `O=C1CCC(N2Cc3cc(NC(=O)N4CC(c5ccccc5F)C4)ccc3C2=O)C(=O)N1` (stereo not drawn) [Compound 217], the DC50 was < 0.1 µM.

With `O=C1CCC(N2Cc3cc(NC(=O)N4CCC(c5ccc(F)cn5)C4)ccc3C2=O)C(=O)N1` (stereo not drawn) [Compound 239], the DC50 was 0.1 to 1 µM. For the compound `Cc1cc2c(cn1)CCN2C(=O)Nc1ccc2c(c1)CN(C1CCC(=O)NC1=O)C2=O` (stereo not drawn) [Compound 113], the DC50 was > 1 µM. Turning to `Cc1ccnc(C2CCN(C(=O)Nc3ccc4c(c3)CN(C3CCC(=O)NC3=O)C4=O)CC2)n1` (stereo not drawn) [Compound 246], the DC50 was > 1 µM.

With `O=C1CCC(N2Cc3cc(NC(=O)N4CCN(c5nccs5)CC4)ccc3C2=O)C(=O)N1` (stereo not drawn) [Compound 242], the DC50 is > 1 µM. Take `O=C1CCC(N2Cc3cc(NC(=O)N4CCc5cccnc5C4)ccc3C2=O)C(=O)N1` (stereo not drawn) [Compound 195]: the DC50 fell in the range of 0.1 to 1 µM. The result for `O=C1CCC(N2Cc3cc(NC(=O)N4Cc5ccncc5C4)ccc3C2=O)C(=O)N1` (stereo not drawn) [Compound 144] reads 0.1 to 1 µM; that for `C[C@H]1CCCN(C(=O)Nc2ccc3c(c2)CN(C2CCC(=O)NC2=O)C3=O)C1` (stereo partly drawn) [Compound 279], 0.1 to 1 µM. The result for `O=C1CCC(N2Cc3cc(NC(=O)N4CCCC5(CCC5)C4)ccc3C2=O)C(=O)N1` (stereo not drawn) [Compound 255] reads < 0.1 µM; that for `C[C@@H]1CCN(C(=O)Nc2ccc3c(c2)CN(C2CCC(=O)NC2=O)C3=O)[C@H](C)C1` (stereo partly drawn) [Compound 275], > 1 µM; that for `Cc1cccc(C2CN(C(=O)Nc3ccc4c(c3)CN(C3CCC(=O)NC3=O)C4=O)C2)c1` (stereo not drawn) [Compound 226], < 0.1 µM.

As for `CC1Cc2ccccc2N1C(=O)Nc1ccc2c(c1)CN(C1CCC(=O)NC1=O)C2=O` (stereo not drawn) [Compound 138], the DC50 is < 0.1 µM. `O=C1CCC(N2Cc3cc(NC(=O)N4CCN(c5ccccn5)CC4)ccc3C2=O)C(=O)N1` (stereo not drawn) [Compound 271] returned a DC50 of 0.1 to 1 µM.

In turn, `O=C1CCC(N2Cc3cc(NC(=O)N4Cc5ccccc5C(n5cccn5)C4)ccc3C2=O)C(=O)N1` (stereo not drawn) [Compound 206] gave a DC50 of 0.1 to 1 µM. Compound `O=C1CCC(N2Cc3cc(NC(=O)N4CCCCC4C4CC4)ccc3C2=O)C(=O)N1` (stereo not drawn) [Compound 232] returned a DC50 of 0.1 to 1 µM. The compound `O=C1CCC(N2Cc3cc(NC(=O)N4C[C@@H]5C[C@]5(C(F)F)C4)ccc3C2=O)C(=O)N1` (stereo partly drawn) [Compound 240] showed a DC50 of 0.1 to 1 µM. The same measure for `O=C1CCC(N2Cc3cc(NC(=O)N4C[C@H]5CC4[C@H](c4ccccc4)C5)ccc3C2=O)C(=O)N1` (stereo partly drawn) [Compound 230]: 0.1 to 1 µM.

The values above are taken from patent US20250171420A1 (Monte Rosa Therapeutics, Inc., priority 2022, published 2025).
